Patent US9512111B2, “N-sulfonylated tetrahydroquinolines and related bicyclic compounds for inhibition of RORγ activity and the treatment of disease” (Lycera Corporation, priority 2010, dated 2016)

Target: T1, RORγ-LBD (Homo sapiens, UniProt P51449)
T1 construct: HIS-tagged RORγ-LBD was recombinantly expressed in SF9 cells; made in house; host or cells: SF9 cells (baculovirus); unpurified lysate
T1 sequence (P51449 269-508 limits assumed): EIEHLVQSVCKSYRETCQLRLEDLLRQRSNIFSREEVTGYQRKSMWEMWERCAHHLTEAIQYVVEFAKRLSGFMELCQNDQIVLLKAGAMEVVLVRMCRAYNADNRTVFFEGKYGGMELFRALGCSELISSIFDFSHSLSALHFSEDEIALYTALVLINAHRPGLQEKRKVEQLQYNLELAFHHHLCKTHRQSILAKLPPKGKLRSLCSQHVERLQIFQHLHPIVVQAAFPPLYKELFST
Assay: RORγ-Ligand Binding Domain TR-FRET Assay
Type: biochemical
Conditions: Table 8, indazoles
Procedure: HIS-tagged RORγ-LBD was recombinantly expressed in SF9 cells using a baculovirus expression system. The protein was not purified. Cells were lysed and the lysate was used as a source for RORγ-LBD for the assay. A 1:80 dilution of RORγ-LBD lysate in assay buffer (25 mM HEPES pH 7.0, 100 mM NaCl, 0.01% Tween, 0.1% BSA) was prepared and 5 μL was added to each well (RORγ-LBD final concentration ˜10 nM). Control wells received lysate from SF9 cells not expressing RORγ-LBD.
Compounds to be tested were diluted to 100× final test concentration in DMSO and further diluted to 4× final test concentration using assay buffer to provide the test compound mixture. An aliquot (5 μL) of the test compound mixture was added to each well.
A 4× stock of biotinylated-LXXLL peptide from SRC1-2 (Biotin-[…]) was prepared in assay buffer and a 5 μL aliquot added to each well (450 nM final concentration). A 4× solution of europium tagged anti-HIS antibody (2 nM final concentration) and APC conjugated streptavidin (60 nM final concentration) were prepared and a 5 μL aliquot added to each well.
The final assay mixture was incubated for 4 hours to overnight, and the fluorescence signal was measured on an Envision plate reader: (Excitation filter=340 nm; APC emission=665 nm; Europium emission=615 nm; dichroic mirror=D400/D630; delay time=100 μs, integration time=200 μs).
IC50 values for test compounds were calculated from the quotient of the fluorescence signal at 665 nm divided by the fluorescence signal at 615 nm using GraphPad Prism software.

IC50 [µM]	Compound
< 15	O=C(Nc1ccc2cnn(S(=O)(=O)Cc3ccc(C(F)(F)F)cc3)c2c1)c1c(Cl)cccc1C(F)(F)F [Compound V-38]
< 15	O=C(Nc1ccc2cnn(S(=O)(=O)c3cccc(Cl)c3)c2c1)c1c(Cl)cccc1C(F)(F)F [Compound V-39]
< 15	COc1cccc(S(=O)(=O)n2ncc3ccc(NC(=O)c4c(Cl)cccc4C(F)(F)F)cc32)c1 [Compound V-40]
< 15	O=C(Nc1ccc2cnn(S(=O)(=O)c3cccc(OC(F)(F)F)c3)c2c1)c1c(Cl)cccc1C(F)(F)F [Compound V-41]
< 15	O=C(Nc1ccc2cnn(S(=O)(=O)c3cccc(C(F)(F)F)c3)c2c1)c1c(Cl)cccc1C(F)(F)F [Compound V-42]
< 15	Cc1nn(C(F)F)cc1S(=O)(=O)n1ncc2ccc(NC(=O)c3c(F)cccc3C(F)(F)F)cc21 [Compound V-43]
< 15	O=C(Nc1ccc2cnn(S(=O)(=O)c3ccc(F)c(C(F)(F)F)c3)c2c1)c1c(F)cccc1C(F)(F)F [Compound V-44]
< 15	O=C(Nc1ccc2cnn(S(=O)(=O)c3cccc(OC(F)F)c3)c2c1)c1c(F)cccc1C(F)(F)F [Compound V-45]
< 15	Cc1cccc(S(=O)(=O)n2ncc3ccc(NC(=O)c4c(F)cccc4C(F)(F)F)cc32)c1 [Compound V-46]
< 15	O=C(Nc1ccc2cnn(S(=O)(=O)Cc3ccc(C(F)(F)F)cc3)c2c1)c1c(F)cccc1C(F)(F)F [Compound V-47]
< 15	O=C(Nc1ccc2cnn(S(=O)(=O)c3cccc(Cl)c3)c2c1)c1c(F)cccc1C(F)(F)F [Compound V-48]
< 15	COc1cccc(S(=O)(=O)n2ncc3ccc(NC(=O)c4c(F)cccc4C(F)(F)F)cc32)c1 [Compound V-49]
< 15	O=C(Nc1ccc2cnn(S(=O)(=O)c3cccc(OC(F)(F)F)c3)c2c1)c1c(F)cccc1C(F)(F)F [Compound V-50]
< 15	O=C(Nc1ccc2cnn(S(=O)(=O)c3cccc(C(F)(F)F)c3)c2c1)c1c(F)cccc1C(F)(F)F [Compound V-51]
< 15	Cc1cccc(S(=O)(=O)n2nc(Br)c3ccc(NC(=O)c4c(F)cccc4Cl)cc32)c1 [Compound V-52]
< 15	O=C(Nc1ccc2cnn(S(=O)(=O)c3cccc(Cl)c3)c2c1)c1c(F)cccc1Cl [Compound V-53]
< 15	O=C(Nc1ccc2cnn(S(=O)(=O)c3cccc(OC(F)(F)F)c3)c2c1)c1c(F)cccc1Cl [Compound V-54]
< 15	O=C(Nc1ccc2cnn(S(=O)(=O)c3cccc(C(F)(F)F)c3)c2c1)c1c(F)cccc1Cl [Compound V-55]
< 15	O=C(Nc1ccc2cnn(S(=O)(=O)c3ccc(F)c(C(F)(F)F)c3)c2c1)c1c(F)cccc1F [Compound V-56]
< 15	CC(C)(C)c1cccc(S(=O)(=O)n2ncc3ccc(NC(=O)c4c(F)cccc4F)cc32)c1 [Compound V-57]
< 15	O=C(Nc1ccc2cnn(S(=O)(=O)c3cccc(OC(F)F)c3)c2c1)c1c(F)cccc1F [Compound V-58]

IC50 [µM]	Compound
< 15	CC(=O)c1cccc(S(=O)(=O)n2ncc3ccc(NC(=O)c4c(F)cccc4F)cc32)c1 [Compound V-59]
< 15	Cc1cccc(S(=O)(=O)n2ncc3ccc(NC(=O)c4c(F)cccc4F)cc32)c1 [Compound V-60]
< 15	O=C(Nc1ccc2cnn(S(=O)(=O)c3cccc(Cl)c3)c2c1)c1c(F)cccc1F [Compound V-61]
< 15	COc1cccc(S(=O)(=O)n2ncc3ccc(NC(=O)c4c(F)cccc4F)cc32)c1 [Compound V-62]
< 15	O=C(Nc1ccc2cnn(S(=O)(=O)c3cccc(OC(F)(F)F)c3)c2c1)c1c(F)cccc1F [Compound V-63]
< 15	O=C(Nc1ccc2cnn(S(=O)(=O)c3cccc(C(F)(F)F)c3)c2c1)c1c(F)cccc1F [Compound V-64]
< 15	Cc1nn(C(F)F)cc1S(=O)(=O)n1ncc2ccc(NC(=O)c3c(Cl)cccc3Cl)cc21 [Compound V-65]
< 15	O=C(Nc1ccc2cnn(S(=O)(=O)c3ccc(F)c(C(F)(F)F)c3)c2c1)c1c(Cl)cccc1Cl [Compound V-66]
< 15	CC(C)(C)c1cccc(S(=O)(=O)n2ncc3ccc(NC(=O)c4c(Cl)cccc4Cl)cc32)c1 [Compound V-67]
< 15	O=C(Nc1ccc2cnn(S(=O)(=O)c3cccc(OC(F)F)c3)c2c1)c1c(Cl)cccc1Cl [Compound V-68]
< 15	CC(=O)c1cccc(S(=O)(=O)n2ncc3ccc(NC(=O)c4c(Cl)cccc4Cl)cc32)c1 [Compound V-69]
< 15	Cc1cccc(S(=O)(=O)n2ncc3ccc(NC(=O)c4c(Cl)cccc4Cl)cc32)c1 [Compound V-70]
< 15	O=C(Nc1ccc2cnn(S(=O)(=O)Cc3ccc(C(F)(F)F)cc3)c2c1)c1c(Cl)cccc1Cl [Compound V-71]
< 15	O=C(Nc1ccc2cnn(S(=O)(=O)c3cccc(Cl)c3)c2c1)c1c(Cl)cccc1Cl [Compound V-72]
< 15	COc1cccc(S(=O)(=O)n2ncc3ccc(NC(=O)c4c(Cl)cccc4Cl)cc32)c1 [Compound V-73]
< 15	O=C(Nc1ccc2cnn(S(=O)(=O)c3cccc(OC(F)(F)F)c3)c2c1)c1c(Cl)cccc1Cl [Compound V-74]
< 15	O=C(Nc1ccc2cnn(S(=O)(=O)c3cccc(C(F)(F)F)c3)c2c1)c1c(Cl)cccc1Cl [Compound V-75]
< 15	O=C(Nc1ccc2cnn(S(=O)(=O)c3ccc(F)c(Cl)c3)c2c1)c1c(F)cccc1Cl [Compound V-76]
< 15	Cc1cc(F)ccc1S(=O)(=O)n1ncc2ccc(NC(=O)c3ccc(F)cc3Cl)cc21 [Compound V-77]
< 15	COc1ccc(C)cc1S(=O)(=O)n1ncc2ccc(NC(=O)c3c(F)cccc3Cl)cc21 [Compound V-78]
< 15	O=C(Nc1ccc2cnn(S(=O)(=O)C3CCOCC3)c2c1)c1c(F)cccc1Cl [Compound V-79]

IC50 [µM]	Compound
< 15	O=C(Nc1ccc2cnn(S(=O)(=O)c3ccc(Cl)c(F)c3)c2c1)c1c(F)cccc1Cl [Compound V-80]
< 15	O=C(Nc1ccc2cnn(S(=O)(=O)c3ccc(F)c(C(F)(F)F)c3)c2c1)c1c(F)cccc1Cl [Compound V-81]
< 15	O=C(Nc1ccc2cnn(S(=O)(=O)c3cc(Cl)sc3Cl)c2c1)c1c(F)cccc1Cl [Compound V-82]
< 15	COc1ccc(Br)cc1S(=O)(=O)n1ncc2ccc(NC(=O)c3c(F)cccc3Cl)cc21 [Compound V-83]
< 15	O=C(Nc1ccc2cnn(S(=O)(=O)c3ccccc3Br)c2c1)c1c(F)cccc1Cl [Compound V-84]
< 15	O=C(Nc1ccc2cnn(S(=O)(=O)c3cccc(OC(F)F)c3)c2c1)c1c(F)cccc1Cl [Compound V-85]
< 15	O=C(Nc1ccc2cnn(S(=O)(=O)Cc3cccc(Cl)c3)c2c1)c1c(F)cccc1Cl [Compound V-86]
< 15	N#Cc1ccccc1S(=O)(=O)n1ncc2ccc(NC(=O)c3c(F)cccc3Cl)cc21 [Compound V-87]
< 15	O=C(Nc1ccc2cnn(S(=O)(=O)c3ccc(C(F)(F)F)cc3)c2c1)c1c(F)cccc1Cl [Compound V-88]
< 15	Cc1nc(C)c(S(=O)(=O)n2ncc3ccc(NC(=O)c4c(F)cccc4Cl)cc32)s1 [Compound V-89]
< 15	Cc1nn(C)c(C)c1S(=O)(=O)n1ncc2ccc(NC(=O)c3c(F)cccc3Cl)cc21 [Compound V-90]
< 15	COc1ccc(S(=O)(=O)n2ncc3ccc(NC(=O)c4c(F)cccc4Cl)cc32)c(OC)c1 [Compound V-91]
< 15	O=C(Nc1ccc2cnn(S(=O)(=O)Cc3ccc(Cl)cc3)c2c1)c1c(F)cccc1Cl [Compound V-92]
< 15	O=C(Nc1ccc2cnn(S(=O)(=O)Cc3cc(C(F)(F)F)cc(C(F)(F)F)c3)c2c1)c1c(F)cccc1Cl [Compound V-93]
< 15	O=C(Nc1ccc2cnn(S(=O)(=O)c3cccnc3)c2c1)c1c(F)cccc1Cl [Compound V-94]
< 15	O=C(Nc1ccc2cnn(S(=O)(=O)c3ccc(N4CCOCC4)nc3)c2c1)c1c(F)cccc1Cl [Compound V-95]
< 15	O=C(Nc1ccc2cnn(S(=O)(=O)c3ccc(Cl)s3)c2c1)c1c(F)cccc1Cl [Compound V-96]
< 15	O=C(Nc1ccc2cnn(S(=O)(=O)c3cc(Cl)c(Cl)s3)c2c1)c1c(F)cccc1Cl [Compound V-97]
< 15	O=C(Nc1ccc2cnn(S(=O)(=O)c3ccc(Br)cc3)c2c1)c1c(F)cccc1Cl [Compound V-98]
< 15	O=C(Nc1ccc2cnn(S(=O)(=O)c3ccsc3)c2c1)c1c(F)cccc1Cl [Compound V-99]
< 15	COc1ccc(F)cc1S(=O)(=O)n1ncc2ccc(NC(=O)c3c(F)cccc3Cl)cc21 [Compound V-100]
